Experimental data published in PubChem BioAssay (NCI).
Values joined by “and” are separate entries in the source; they are usually repeats but may differ in a detail not shown here. Equal entries are not always repeated.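 The compound was tested at five concentrations on cells cultured in 96-well plates, with a 48-hour exposure period. The concentration for 50% growth inhibition is given as GI50. At the TGI there is no net growth.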

Tests used:
Experiment in all cases: NCI anticancer screen, dose series, 48 h
[1] = system: 786-0 renal
[2] = system: BT-549 breast
[3] = system: HS 578T breast
[4] = system: SK-MEL-2 melanoma
[5] = system: SK-MEL-28 melanoma
[6] = system: SK-OV-3 ovarian
[7] = system: SN12C renal
[8] = system: CAKI-1 renal
[9] = system: HCC-2998 colon
[10] = system: SK-MEL-5 melanoma

| Compound | TGI [1] [µM] | TGI [2] [µM] | TGI [3] [µM] | TGI [4] [µM] | TGI [5] [µM] | TGI [6] [µM] | TGI [7] [µM] | TGI [8] [µM] | TGI [9] | TGI [10] | GI50 [2] [µM] | GI50 [8] [µM] | GI50 [9] [µM] | GI50 [5] | GI50 [10] | GI50 [6] | GI50 [7] [µM] |
| --- | --- | --- | --- | --- | --- | --- | --- | --- | --- | --- | --- | --- | --- | --- | --- | --- | --- |
| CCC(=O)/C(=C\I)c1ccccc1 | 3.33 | 3.3 | > 100 | 4.41 | 6.45 | 30.2 | 5.29 | – | – | – | – | – | – | – | – | – | – |
| COCC12CCC(OC)C34C5CC6(O)C(OC)CC(OC(C)=O)(C5C6OC(=O)c5ccccc5)C(C(OC)C13)C4N(C)C2 (stereo unspecified) | > 100 | > 100 | > 100 | > 100 | > 100 | > 100 | > 100 | > 100 | > 100 µM | > 100 µM | – | – | – | – | – | – | – |
| COc1ccc2[nH]c(C(=O)N3CC(CCl)c4c3cc(N)c3ccccc43)cc2c1 (stereo unspecified) | – | < 0.0261 | – | 0.0285 | – | 0.964 | < 0.0183 | < 0.01 | < 0.01 µM | < 0.0112 µM | – | – | – | – | – | – | – |
| COc1ccc2c(c1)c1nn(CCN3CCCCC3)c3ccc4c(=O)n(CCN(C)C)c(=O)n2c4c13 | 0.059 | 1.08 | 0.412 | 0.271 | 0.596 | 2.91 | 0.0984 | 0.375 | 0.03 µM | 0.283 µM | – | – | – | – | – | – | – |
| COc1cc(OC2OC(COC(=O)c3cc(O)c(O)c(O)c3)C(O)C(O)C2O)ccc1O (stereo unspecified) | > 100 | > 100 | > 100 | > 100 | > 100 | – | > 100 | > 100 | > 100 µM | > 100 µM | – | – | – | – | – | – | – |
| Cc1c2ccccc2c(C)n2c1nc1ccccc12 | 25.9 | 35.3 | 54.5 | – | 22.5 | 27.1 | 30.9 | – | 22.7 µM | 16 µM | – | – | – | – | – | – | – |
| O=C1/C(=C/c2ccccc2)NC(=S)N1CN1CCCCC1 | > 100 | – | > 100 | > 100 | > 100 | > 100 | > 100 | – | – | > 100 µM | – | – | – | – | – | – | – |
| CNC(=S)NNc1ncnc2c1ncn2-c1ccc(C)cc1 | > 100 | > 100 | > 100 | > 100 | > 100 | > 100 | > 100 | > 100 | – | > 100 µM | – | – | – | – | – | – | – |
| Cc1ccc(S(=O)(=O)N/N=C2/CCC(C(C)(C)C)CC2Br)cc1 (stereo unspecified) | 99.4 | 75.1 | 47.1 | 28.1 | 54.5 | > 100 | 32.4 | 69.1 | – | 29.5 µM | – | – | – | – | – | – | – |
| C[n+]1c2ccccc2c(/C=N\NS(=O)(=O)c2ccc(Cl)cc2)c2ccccc21 | > 100 | – | – | > 100 | > 100 | > 100 | > 100 | > 100 | > 100 µM | > 100 µM | – | – | – | – | – | – | – |
| Clc1ccc(C2CC(c3cccc(Nc4ccncc4)c3)=NN2c2cc(Cl)cc(Cl)c2)cc1 (stereo unspecified) | – | 3.57 | – | – | 3.39 | 3.83 | 3.29 | 3.13 | 3.04 µM | 3.38 µM | 1.85 | 1.61 | 1.56 | 1.76 µM | 1.83 µM | 1.89 µM | 1.73 |
| Cc1ccc2c(C(=O)c3c(C)n(CCN4CCOCC4)c4ccccc34)cccc2c1 | 49 | 51.6 | 25.6 | 42.4 | > 100 | 61 | > 100 | > 100 | – | 13 µM | – | – | – | – | – | – | – |
| NC(=Nc1ccccc1)c1ccccc1N | > 100 | > 100 | > 100 | > 100 | 64.4 | > 100 | – | > 100 | > 100 µM | > 100 µM | – | – | – | – | – | – | – |
| Cc1c(O)c(OC2OC(CO)C(O)C(O)C2O)cc2c1C=C[C@@H]1[C@@]2(C)C(=O)C[C@]2(C)[C@@H]([C@@](C)(O)C(=O)CCC(C)(C)O)[C@H](O)C[C@@]12C (stereo partly specified) | 74.3 | 49.5 | – | 68.7 | 43.1 | 42.1 | 44.1 | 36.5 | 41 µM | 43.6 µM | – | – | – | – | – | – | – |
| CC(=O)NC1(C(=O)N[C@@H](Cc2ccccc2)C(=O)NC2CCCCC2)Cc2ccc3ccccc3c2-c2c(ccc3ccccc23)C1 | > 100 | > 100 | > 100 | > 100 | > 100 | > 100 | – | > 100 | > 100 µM and 89.5 µM | 12.1 µM and 23.7 µM | – | – | – | 9.72 µM and 23.1 µM | 2.9 µM and 6.71 µM | 27.6 µM and > 100 µM | – |
| COC([C@@H](OC(=O)c1ccccc1)[C@H](OC(=O)c1ccccc1)C(O)COC(=O)c1ccccc1)n1cc(C)c(=O)[nH]c1=O (stereo partly specified) | 77 | 77 | > 100 | 67.1 | > 100 | > 100 | > 100 | – | – | 24 µM | – | – | – | – | – | – | – |
| Cc1ccc(S(=O)(=O)n2ccc(-c3ccc4ccn(S(=O)(=O)c5ccc(C)cc5)c4c3)c2)cc1 | > 100 | > 100 | > 100 | > 100 | – | > 100 | > 100 | > 100 | > 100 µM | > 100 µM | – | – | – | – | – | – | – |
| N[C@H](CCC(=O)NCP(=O)(O)O)C(=O)O | > 100 | > 100 | > 100 | > 100 | > 100 | – | > 100 | – | > 100 µM | > 100 µM | – | – | – | – | – | – | – |
| Cc1cc(O)cc(O)c1C(=O)O[C@]1(C)C(=O)C=C2C=C(/C=C/C(=O)O)OC=C2C1=O | > 100 | – | > 100 | > 100 | > 100 | > 100 | > 100 | > 100 | > 100 µM | > 100 µM | – | – | – | – | – | – | – |
| Nc1ccc2ccc(-c3ccc[nH]3)nc2n1 | > 100 | > 100 | – | > 100 | > 100 | > 100 | > 100 | > 100 | > 100 µM | > 100 µM | – | – | – | – | – | – | – |
| COP(=O)(O)C(N)Cc1c[nH]c2ccccc12 (stereo unspecified) | – | – | > 100 | > 100 | > 100 | > 100 | > 100 | > 100 | > 100 µM | > 100 µM | – | – | – | – | – | – | – |
| O=C(O)CNC(=O)c1ccc2cc(C(=O)N3CC(CCl)c4ccc([N+](=O)[O-])cc43)[nH]c2c1 (stereo unspecified) | > 100 | > 100 | > 100 | > 100 | – | > 100 | > 100 | > 100 | – | > 100 µM | – | – | – | – | – | – | – |
